Assay results published in PubChem BioAssay (NCI).
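Five compound concentrations were applied to cells in 96-well plates for 48 hours; endpoints were derived by simple linear interpolation of the resulting dose-response curve. At the GI50, growth is halved. The concentration for full growth arrest is given as TGI.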

Assays:
Test in all cases: growth of human tumour cells (NCI), 48 h
786-0 renal = system: 786-0 renal
A498 renal = system: A498 renal
A549 NSCLC = system: A549 NSCLC
ACHN renal = system: ACHN renal
CAKI-1 renal = system: CAKI-1 renal
CCRF-CEM leukemia = system: CCRF-CEM leukemia
COLO 205 colon = system: COLO 205 colon
DU-145 prostate = system: DU-145 prostate
EKVX NSCLC = system: EKVX NSCLC
HCC-2998 colon = system: HCC-2998 colon
HCT-116 colon = system: HCT-116 colon
HCT-15 colon = system: HCT-15 colon
HOP-62 NSCLC = system: HOP-62 NSCLC
HOP-92 NSCLC = system: HOP-92 NSCLC
HS 578T breast = system: HS 578T breast
HT29 colon = system: HT29 colon
IGROV1 ovarian = system: IGROV1 ovarian
K-562 leukemia = system: K-562 leukemia
KM12 colon = system: KM12 colon
LOX IMVI melanoma = system: LOX IMVI melanoma
M14 melanoma = system: M14 melanoma
MALME-3M melanoma = system: MALME-3M melanoma
MCF7 breast = system: MCF7 breast
MDA-MB-231 breast = system: MDA-MB-231 breast
MDA-MB-435 = system: MDA-MB-435
MOLT-4 leukemia = system: MOLT-4 leukemia
NCI-H226 lung = system: NCI-H226 lung
NCI-H23 lung = system: NCI-H23 lung

O=C(Nc1ccccc1OC(=O)c1ccccc1)c1ccccc1
GI50 (786-0 renal): 15.6 µM
TGI (786-0 renal): > 100 µM
GI50 (A498 renal): 12.7 µM
TGI (A498 renal): 60.1 µM
GI50 (A549 NSCLC): 16.5 µM
TGI (A549 NSCLC): > 100 µM
GI50 (ACHN renal): 43.6 µM
TGI (ACHN renal): > 100 µM
GI50 (CAKI-1 renal): 5.84 µM
TGI (CAKI-1 renal): 54.4 µM
GI50 (CCRF-CEM leukemia): 5.87 µM
TGI (CCRF-CEM leukemia): > 100 µM
GI50 (COLO 205 colon): 30.1 µM
TGI (COLO 205 colon): 95.6 µM
GI50 (DU-145 prostate): 23.1 µM
TGI (DU-145 prostate): 88.7 µM
GI50 (EKVX NSCLC): 7.45 µM
TGI (EKVX NSCLC): > 100 µM
GI50 (HCC-2998 colon): 30.1 µM
TGI (HCC-2998 colon): > 100 µM
GI50 (HCT-116 colon): 3.69 µM
TGI (HCT-116 colon): > 100 µM
GI50 (HCT-15 colon): 4.37 µM
TGI (HCT-15 colon): > 100 µM
GI50 (HOP-62 NSCLC): 18.8 µM
TGI (HOP-62 NSCLC): > 100 µM
GI50 (HOP-92 NSCLC): 23.1 µM
TGI (HOP-92 NSCLC): > 100 µM
GI50 (HS 578T breast): 4.72 µM
TGI (HS 578T breast): > 100 µM
GI50 (HT29 colon): 3.76 µM
TGI (HT29 colon): 41.4 µM
GI50 (IGROV1 ovarian): 2910 nM
TGI (IGROV1 ovarian): 17.1 µM
GI50 (K-562 leukemia): 3.22 µM
TGI (K-562 leukemia): > 100 µM
GI50 (KM12 colon): 3.12 µM
TGI (KM12 colon): 10.9 µM
GI50 (LOX IMVI melanoma): 3.92 µM
TGI (LOX IMVI melanoma): > 100 µM
GI50 (M14 melanoma): 25.3 µM
TGI (M14 melanoma): > 100 µM
GI50 (MALME-3M melanoma): 14.5 µM
TGI (MALME-3M melanoma): > 100 µM
GI50 (MCF7 breast): 12.9 µM
TGI (MCF7 breast): > 100 µM
GI50 (MDA-MB-231 breast): 6.44 µM
TGI (MDA-MB-231 breast): > 100 µM
GI50 (MDA-MB-435): 24.5 µM
TGI (MDA-MB-435): > 100 µM
GI50 (MOLT-4 leukemia): 3.55 µM
TGI (MOLT-4 leukemia): > 100 µM
GI50 (NCI-H226 lung): > 100 µM
TGI (NCI-H226 lung): > 100 µM
GI50 (NCI-H23 lung): 8.05 µM
TGI (NCI-H23 lung): > 100 µM
